Laboratory results: the supplement of paper PMC10307832

Key:
Experiment in all cases: relative viability (nuclei count vs DMSO), 5 days (fraction); higher = more cells survive
[1] = compound: O=C(CCCCCCNC(=O)c1cnc(N(c2ccccc2)c2ccccc2)nc1)NO [Ricolinostat] + O=C(CCCCCCC(=O)Nc1ccccc1)NO [Vorinostat] (partner 1 µM)
Outline: (§1)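 Medians of duplicate plates are given as relative viability. That measure is the nuclei count in treated wells divided by the count in vehicle wells. Counts were taken on 4× images of lung cancer cell lines in 1536-well plates, 5 days after pin-tool dosing the day after seeding with one drug alone or a fixed anchor-drug dose plus five library-drug doses (not always all listed) in √10 steps.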

[2] = compound: C1=CC=C(C(=C1)C2=CC=C(C=C2)C3=CSC4=C3C(=C(C(=O)N4)C#N)O)O + C[C@@H](Oc1cc(-c2cnn(C3CCNCC3)c2)cnc1N)c1c(Cl)ccc(F)c1Cl [Crizotinib] (partner 1 µM)
Outline: as §1

[3] = compound: C1=CC=C(C(=C1)C2=CC=C(C=C2)C3=CSC4=C3C(=C(C(=O)N4)C#N)O)O + CCNC(=O)c1noc(-c2cc(C(C)C)c(O)cc2O)c1-c1ccc(CN2CCOCC2)cc1 [Luminespib] (partner 0.01 µM)
Outline: as §1

[4] = compound: CC1=CN2C(=O)C=C(N=C2C(=C1)C(C)NC3=CC=CC=C3)N4CCOCC4 [TGX 221] + COc1cccc2cc(-c3nc([C@H]4CC[C@H](C(=O)O)CC4)n4ncnc(N)c34)[nH]c12 [OSI-027] (partner 0.5 µM)
Outline: as §1

Cell Line | relative viability ([1]; first compound 0.08 µM) | relative viability ([1]; first compound 0.253 µM) | relative viability ([1]; first compound 0.8 µM) | relative viability ([1]; first compound 2.53 µM) | relative viability ([2]; first compound 0.08 µM) | relative viability ([2]; first compound 0.253 µM) | relative viability ([2]; first compound 0.8 µM) | relative viability ([2]; first compound 2.53 µM) | relative viability ([2]; first compound 8 µM) | relative viability ([3]; first compound 0.08 µM) | relative viability ([3]; first compound 0.253 µM) | relative viability ([3]; first compound 0.8 µM) | relative viability ([3]; first compound 2.53 µM) | relative viability ([3]; first compound 8 µM) | relative viability ([4]; first compound 0.08 µM) | relative viability ([4]; first compound 0.253 µM) | relative viability ([4]; first compound 0.8 µM) | relative viability ([4]; first compound 2.53 µM) | relative viability ([4]; first compound 8 µM)
NCI-H3122 | 0.966 | 0.848 | 0.853 | 0.708 | 0.317 | 0.34 | 0.248 | 0.271 | 0.302 | 0.106 | 0.0689 | 0.0946 | 0.105 | 0.0854 | 0.874 | 0.929 | 1 | 0.864 | 0.963
HCC-15 | 0.768 | 0.746 | 0.691 | 0.618 | 0.696 | 0.885 | 0.855 | 0.886 | 0.692 | 0.277 | 0.289 | 0.297 | 0.38 | 0.3 | 0.672 | 0.713 | 0.754 | 0.592 | 0.681
NCI-H2009 | 0.614 | 0.68 | 0.711 | 0.53 | 0.916 | 1.03 | 1.01 | 1.04 | 0.955 | 0.962 | 1.02 | 1.11 | 1.03 | 1.02 | 0.543 | 0.583 | 0.574 | 0.569 | 0.49
NCI-H23 | 0.426 | 0.586 | 0.407 | 0.342 | 0.466 | 0.686 | 0.381 | 0.511 | 0.386 |  | 0.19 | 0.212 | 0.197 | 0.211 | 0.506 | 0.613 | 0.594 | 0.456 | 0.517
NCI-H1623 |  |  |  |  |  |  |  |  |  | 0.454 | 0.591 | 0.817 | 0.434 | 0.419 | 0.44 | 0.402 | 0.423 | 0.389 | 0.477
NCI-H1734 | 0.725 | 0.891 | 0.702 | 0.67 | 0.627 | 0.703 | 0.689 | 0.634 | 0.444 | 0.16 | 0.245 | 0.196 | 0.214 | 0.208 | 0.57 | 0.579 | 0.621 | 0.527 | 0.532
NCI-H2170 | 0.774 | 0.744 | 0.737 | 0.501 | 1.13 | 1.34 | 1.25 | 1.28 | 0.888 | 0.594 | 1.11 | 0.992 | 0.752 | 0.609 | 0.717 | 0.737 | 0.681 | 0.66 | 0.712
NCI-H2342 | 0.693 | 0.694 | 0.757 | 0.745 |  |  |  |  |  | 0.742 | 0.816 | 0.788 | 0.718 | 0.68 | 0.544 | 0.655 | 0.613 | 0.631 | 0.602
HCC-366 | 0.296 | 0.327 | 0.313 | 0.165 | 0.245 | 0.779 | 0.614 | 0.599 | 0.285 |  |  |  |  |  | 0.865 | 0.832 | 0.922 | 0.567 | 0.755
HARA | 0.496 | 0.446 | 0.377 | 0.373 |  | 1.51 | 1.1 | 1.05 | 0.842 | 0.375 | 0.707 | 0.553 | 0.592 | 0.682 | 0.447 | 0.493 | 0.526 | 0.501 | 0.471
NCI-H2087 | 0.398 | 0.42 | 0.728 | 0.193 | 0.845 | 1.04 | 0.914 | 1.02 | 0.825 | 0.165 | 0.162 | 0.222 | 0.172 | 0.204 | 0.579 | 0.481 | 0.574 | 0.465 | 0.622
NCI-H1650 | 0.544 | 0.535 | 0.485 | 0.372 |  | 1.16 | 0.943 | 1.06 | 0.919 | 0.195 | 0.197 | 0.175 | 0.208 | 0.2 | 0.648 | 0.55 | 0.737 | 0.661 | 0.529
NCI-H1563 |  |  |  |  | 0.736 | 0.862 | 0.884 | 0.904 | 0.858 | 0.525 | 0.613 | 0.551 | 0.587 | 0.517 | 0.796 | 0.653 | 0.69 | 0.754 | 0.633
NCI-H1666 | 0.933 | 1.01 | 1.01 | 0.847 | 0.914 | 1.15 | 0.731 | 0.769 | 1.03 | 0.942 | 1.05 | 0.949 | 1.01 | 1.01 | 0.836 | 0.81 | 0.831 | 0.819 | 0.887
LCLC-103H | 0.662 | 0.738 | 0.639 | 0.522 | 1.09 | 1.17 | 0.967 | 1.18 | 1.02 | 0.87 | 0.98 | 1.06 | 0.929 | 1.06 | 0.425 | 0.453 | 0.438 | 0.394 | 0.411
HOP-62 | 0.572 | 0.537 | 0.478 | 0.292 | 0.901 | 1.14 | 0.983 | 1.04 | 0.783 | 0.925 | 0.892 | 0.876 | 1.05 | 0.762 | 0.787 | 0.812 | 0.788 | 0.807 | 0.835
BEN | 0.517 | 0.543 | 0.592 | 0.498 | 0.771 | 0.948 | 0.886 | 1.02 | 0.776 | 0.354 | 0.345 | 0.305 | 0.71 | 0.331 | 0.293 | 0.271 | 0.276 | 0.287 | 0.296
NCI-H1299 |  |  |  |  | 0.878 | 1.02 | 0.987 | 0.968 | 0.947 |  |  |  |  |  |  |  |  |  | 

Cell Line | relative viability ([1]; first compound 0.08 µM) | relative viability ([1]; first compound 0.253 µM) | relative viability ([1]; first compound 0.8 µM) | relative viability ([1]; first compound 2.53 µM) | relative viability ([2]; first compound 0.08 µM) | relative viability ([2]; first compound 0.253 µM) | relative viability ([2]; first compound 0.8 µM) | relative viability ([2]; first compound 2.53 µM) | relative viability ([2]; first compound 8 µM) | relative viability ([3]; first compound 0.08 µM) | relative viability ([3]; first compound 0.253 µM) | relative viability ([3]; first compound 0.8 µM) | relative viability ([3]; first compound 2.53 µM) | relative viability ([3]; first compound 8 µM) | relative viability ([4]; first compound 0.08 µM) | relative viability ([4]; first compound 0.253 µM) | relative viability ([4]; first compound 0.8 µM) | relative viability ([4]; first compound 2.53 µM) | relative viability ([4]; first compound 8 µM)
UMC-11 | 0.389 | 0.377 | 0.265 | 0.187 | 0.547 | 0.506 | 0.574 | 0.487 | 0.622 | 0.764 | 1.04 | 1.03 | 1.06 | 0.839 | 0.502 | 0.438 | 0.482 | 0.458 | 0.456
NCI-H1755 | 0.665 | 0.715 | 0.673 | 0.484 | 0.74 | 0.916 | 0.738 | 0.97 | 0.827 | 0.401 | 0.302 | 0.336 | 0.349 | 0.447 | 0.685 | 0.728 | 0.605 | 0.657 | 0.697
SK-LU-1 | 0.669 | 0.613 | 0.731 | 0.607 | 0.895 | 0.995 | 0.837 | 0.85 | 0.661 | 0.195 | 0.217 | 0.217 | 0.175 | 0.218 | 0.31 | 0.331 | 0.288 | 0.273 | 0.298
NCI-H1793 | 0.519 | 0.72 | 0.566 | 0.726 |  |  |  |  |  | 0.19 | 0.21 | 0.42 | 0.225 | 0.166 | 0.249 | 0.237 | 0.248 | 0.183 | 0.218
NCI-H647 | 0.562 | 0.464 | 0.52 | 0.441 | 0.79 | 1.24 | 1.23 | 1.14 | 0.924 | 0.183 | 0.0923 | 0.19 | 0.245 | 0.209 | 0.475 | 0.562 | 0.483 | 0.517 | 0.425
NCI-H1975 | 0.655 | 0.671 | 0.566 | 0.609 | 0.852 | 1.03 | 1.01 | 1.05 | 0.721 | 0.174 | 0.248 | 0.161 | 0.253 | 0.161 | 0.694 | 0.676 | 0.653 | 0.528 | 0.555
NCI-H1648 |  | 0.483 | 0.458 | 0.254 |  |  |  |  |  |  |  |  |  |  | 0.268 |  | 0.256 | 0.237 | 0.254
NCI-H2126 | 0.456 | 0.796 | 0.684 | 0.485 | 0.921 | 1.11 | 1 | 1.09 | 0.912 | 0.894 | 0.895 | 0.89 | 0.948 | 0.928 | 0.703 | 0.733 | 0.619 | 0.539 | 0.702
EBC-1 |  |  |  |  | 0.202 | 0.21 | 0.19 | 0.199 | 0.191 |  |  |  |  |  |  |  |  |  | 
NCI-H522 | 0.836 | 0.919 | 0.855 | 0.628 |  |  |  |  |  |  | 1.28 | 1.2 | 1.27 | 0.937 | 0.606 | 0.739 | 0.704 | 0.789 | 0.641
Calu-6 |  |  |  |  | 0.614 | 0.967 | 0.726 | 0.863 | 0.635 |  |  |  |  |  |  |  |  |  | 
HCC-78 |  | 0.433 | 0.395 | 0.362 | 0.374 | 0.423 | 0.443 | 0.343 | 0.3 |  |  |  |  |  | 0.295 | 0.385 | 0.33 | 0.306 | 0.326
NCI-H1703 |  |  |  |  | 0.452 | 0.811 | 0.827 | 0.844 | 0.56 |  |  |  |  |  |  |  |  |  | 
NCI-H1395 |  | 0.833 | 0.468 | 0.674 |  |  |  |  |  | 0.933 | 0.683 | 0.658 | 0.641 | 0.5 | 0.542 | 0.525 | 0.61 | 0.475 | 0.544
A549 |  |  |  |  | 0.493 | 0.998 | 0.688 | 0.885 | 0.55 |  |  |  |  |  |  |  |  |  | 
SW 900 | 0.446 | 0.61 | 0.483 | 0.327 |  |  |  |  |  | 0.161 | 0.174 | 0.186 | 0.135 | 0.192 | 0.609 | 0.482 | 0.449 | 0.429 | 0.713
IA-LM |  | 0.96 | 0.8 | 0.647 | 0.826 | 0.914 | 0.714 | 0.882 | 0.439 |  |  |  |  |  |  |  |  |  | 
